Tests used:
[1] = test system: S1-M1-80 cells expressing MXR; experiment: In vitro cytotoxicity assay (sulforhodamine B staining); assay type: cell-based, human; parameters: sensitization to topotecan: dose or concentration left out as unconfirmed
Experimental: Reversal of resistance was determined in cytotoxicity assays using the sulforhodamine staining (Skehan et al. (1990) J. Natl. […] Briefly, cells were harvested and seeded at a density of 2000 cells/well for the colon cancer lines and 4000 cells/well for the breast cancer cell lines in flat-bottom 96-well plates. The cells were incubated for 24 h at 37° C. to allow attachment prior to addition of the drugs. […] Each concentration was tested in triplicate and the controls were done in replicates of eight. Results are representative of from three to six experiments. […] After incubation, the cells were fixed in TCA and stained with sulforhodamine B (SRB) solution (0.4% wt/vol in 1% acetic acid) (Sigma Chemical, St Louis, Mo.). Optical densities were read on a Bio-Rad plate reader (Hercules, Calif.) at an absorbance of 540 nm.

[2] = molecular target: T1, MXR (S1-M1-80 cells) (Homo sapiens, UniProt Q9UNQ0, R482G); experiment: Rhodamine efflux assay (flow cytometry); assay type: cell-based; settings: S1-M1-80 cells
T1 construct: express high levels of a mitoxantrone transporter (Miyake et al. (1999) Cancer Res.59: 8-13); endogenous in cells; host or cells: S1-M1-80 (mitoxantrone-selected subline of S1 colon carcinoma cells)
T1 sequence (Q9UNQ0 1-655 R482G): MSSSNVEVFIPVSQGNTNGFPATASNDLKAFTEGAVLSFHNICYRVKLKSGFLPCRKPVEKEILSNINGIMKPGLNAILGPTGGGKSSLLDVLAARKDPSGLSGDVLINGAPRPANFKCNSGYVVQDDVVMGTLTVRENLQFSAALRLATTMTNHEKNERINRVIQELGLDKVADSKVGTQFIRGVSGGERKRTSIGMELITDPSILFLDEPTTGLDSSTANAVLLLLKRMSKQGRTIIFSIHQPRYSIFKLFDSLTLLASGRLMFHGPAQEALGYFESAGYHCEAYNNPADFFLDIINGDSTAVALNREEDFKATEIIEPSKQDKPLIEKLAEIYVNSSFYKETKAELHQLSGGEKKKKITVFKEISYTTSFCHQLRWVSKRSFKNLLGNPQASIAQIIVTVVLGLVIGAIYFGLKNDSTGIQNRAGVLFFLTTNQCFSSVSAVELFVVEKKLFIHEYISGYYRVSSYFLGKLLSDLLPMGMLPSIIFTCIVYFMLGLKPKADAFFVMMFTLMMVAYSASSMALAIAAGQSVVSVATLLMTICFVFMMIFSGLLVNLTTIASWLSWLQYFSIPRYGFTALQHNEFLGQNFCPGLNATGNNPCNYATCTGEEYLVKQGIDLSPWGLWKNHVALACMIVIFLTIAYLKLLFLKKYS
Experimental: (§1) To provide confirmation, rhodamine efflux assays were performed. […] The results are depicted in FIG. 2.

[3] = test system: MCF-7 parental cells; experiment: Rhodamine efflux assay (flow cytometry); assay type: cell-based, human
Experimental: as §1

[4] = molecular target: T2, MRP (MCF-7/VP cells) (Homo sapiens, UniProt P33527); experiment: Calcein efflux assay (FACS); assay type: cell-based; settings: at 25 μM, MCF-7/VP cells (data not shown)
T2 construct: Calcein is readily effluxed in the MRP-overexpressing MCF-7/VP cells; endogenous in cells; host or cells: MCF-7/VP (maintained in 4 uM VP-16; provided by Dr. Ken Cowan)
Experimental: (§2) The rhodamine and calcein efflux assays were performed as previously described with minor modifications (Lee et al. (1994) Mol. Pharmacol. 46: 627-638; Versantvoort et al. (1995) Int. J. Cancer 63: 855-862.) Suspensions of logarithmic phase cells were obtained from tissue culture flasks by trypsinization and transferred into round-bottom 96-well plates. […] After the efflux period, the cells were washed with DPBS and placed on ice. A FACSort flow cytometer (Becton Dickinson, San Jose, Calif.) with a 488-nm argon laser was used to analyze the samples. Rhodamine 123 or calcein fluorescence was collected after a 530 nm bandpass filter. A minimum of 10,000 events was collected per sample and the samples were gated on forward scatter versus side scatter to exclude clumps and debris; dead cells were excluded based on propidium iodide staining.
(§3) Calcein AM can be used to detect both Pgp and MRP-mediated efflux. Calcein permeates the cell in neutral form as an acetomethoxyester, calcein AM. Esterase activity cleaves the AM group leaving calcein as a fluorescent organic anion.

[5] = molecular target: T3, Pgp (S1-B1-20 cells) (Homo sapiens, UniProt P08183); experiment: Calcein AM efflux assay (FACS); assay type: cell-based
T3 construct: The S1-B1-20 cells overexpress Pgp; endogenous in cells; host or cells: S1-B1-20 (Pgp-overexpressing subline of S1 colon carcinoma cells)
Experimental: as §2, §3

[6] = test system: MXR-expressing S1-M1-80 cells; experiment: Confocal microscopy of mitoxantrone / rhodamine 123 accumulation; assay type: cell-based, human
Experimental: (§4) Cells were seeded in 35 mm glass-bottom microwell dishes (MatTek Corporation, Ashland, Mass.) at a density of 4000 cells/dish and incubated for 48 hours in phenol red-free IMEM supplemented with 10% fetal calf serum. […] The cells were analyzed using a Zeiss LSM 410 confocal laser scanning microscope equipped with a […] argon laser exciting mitoxantrone at 568 nm. Emitted light passed through a 590 nm long-pass filter.

[7] = test system: P-glycoprotein overexpressing S1-B1-20 cells; experiment: as above; assay type: cell-based, human
Experimental: as §4

[8] = molecular target: Pgp (Homo sapiens, UniProt P08183); settings: reported in literature; cited from earlier work
Chain of Pgp (P08183 whole entry): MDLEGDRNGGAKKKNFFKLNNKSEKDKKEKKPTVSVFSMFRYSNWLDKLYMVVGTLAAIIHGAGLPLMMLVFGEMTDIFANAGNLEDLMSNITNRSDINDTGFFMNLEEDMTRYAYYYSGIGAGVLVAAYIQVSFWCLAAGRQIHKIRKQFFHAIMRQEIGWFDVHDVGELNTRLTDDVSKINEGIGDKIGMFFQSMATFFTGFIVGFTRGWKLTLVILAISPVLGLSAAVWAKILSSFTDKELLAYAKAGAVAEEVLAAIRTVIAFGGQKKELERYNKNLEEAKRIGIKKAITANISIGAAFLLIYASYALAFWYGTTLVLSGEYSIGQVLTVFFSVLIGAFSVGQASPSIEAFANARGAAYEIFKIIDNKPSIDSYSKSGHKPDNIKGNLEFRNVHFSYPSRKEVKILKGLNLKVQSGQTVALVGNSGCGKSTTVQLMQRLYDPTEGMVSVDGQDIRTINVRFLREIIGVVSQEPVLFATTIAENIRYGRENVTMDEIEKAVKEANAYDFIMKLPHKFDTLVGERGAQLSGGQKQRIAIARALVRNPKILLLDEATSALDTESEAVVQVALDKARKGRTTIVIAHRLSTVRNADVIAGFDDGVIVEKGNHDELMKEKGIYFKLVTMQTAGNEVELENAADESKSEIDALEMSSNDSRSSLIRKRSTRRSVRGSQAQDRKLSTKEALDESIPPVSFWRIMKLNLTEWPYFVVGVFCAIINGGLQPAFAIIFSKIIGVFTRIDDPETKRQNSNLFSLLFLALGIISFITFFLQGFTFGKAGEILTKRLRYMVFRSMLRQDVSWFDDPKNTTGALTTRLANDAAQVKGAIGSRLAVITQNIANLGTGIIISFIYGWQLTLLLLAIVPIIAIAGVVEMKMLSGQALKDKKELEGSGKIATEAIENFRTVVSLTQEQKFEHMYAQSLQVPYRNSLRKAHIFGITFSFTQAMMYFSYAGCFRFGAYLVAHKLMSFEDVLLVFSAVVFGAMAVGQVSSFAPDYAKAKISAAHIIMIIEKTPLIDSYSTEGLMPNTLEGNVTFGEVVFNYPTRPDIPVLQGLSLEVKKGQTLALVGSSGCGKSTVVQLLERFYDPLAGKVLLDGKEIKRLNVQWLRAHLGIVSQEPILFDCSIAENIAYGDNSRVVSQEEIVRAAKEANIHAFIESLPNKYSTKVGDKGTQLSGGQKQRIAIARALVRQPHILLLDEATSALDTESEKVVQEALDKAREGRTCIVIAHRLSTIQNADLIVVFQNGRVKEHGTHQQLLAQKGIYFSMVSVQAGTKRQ

T3 sequence (P08183 whole entry): as above
T2 sequence (P33527 whole entry): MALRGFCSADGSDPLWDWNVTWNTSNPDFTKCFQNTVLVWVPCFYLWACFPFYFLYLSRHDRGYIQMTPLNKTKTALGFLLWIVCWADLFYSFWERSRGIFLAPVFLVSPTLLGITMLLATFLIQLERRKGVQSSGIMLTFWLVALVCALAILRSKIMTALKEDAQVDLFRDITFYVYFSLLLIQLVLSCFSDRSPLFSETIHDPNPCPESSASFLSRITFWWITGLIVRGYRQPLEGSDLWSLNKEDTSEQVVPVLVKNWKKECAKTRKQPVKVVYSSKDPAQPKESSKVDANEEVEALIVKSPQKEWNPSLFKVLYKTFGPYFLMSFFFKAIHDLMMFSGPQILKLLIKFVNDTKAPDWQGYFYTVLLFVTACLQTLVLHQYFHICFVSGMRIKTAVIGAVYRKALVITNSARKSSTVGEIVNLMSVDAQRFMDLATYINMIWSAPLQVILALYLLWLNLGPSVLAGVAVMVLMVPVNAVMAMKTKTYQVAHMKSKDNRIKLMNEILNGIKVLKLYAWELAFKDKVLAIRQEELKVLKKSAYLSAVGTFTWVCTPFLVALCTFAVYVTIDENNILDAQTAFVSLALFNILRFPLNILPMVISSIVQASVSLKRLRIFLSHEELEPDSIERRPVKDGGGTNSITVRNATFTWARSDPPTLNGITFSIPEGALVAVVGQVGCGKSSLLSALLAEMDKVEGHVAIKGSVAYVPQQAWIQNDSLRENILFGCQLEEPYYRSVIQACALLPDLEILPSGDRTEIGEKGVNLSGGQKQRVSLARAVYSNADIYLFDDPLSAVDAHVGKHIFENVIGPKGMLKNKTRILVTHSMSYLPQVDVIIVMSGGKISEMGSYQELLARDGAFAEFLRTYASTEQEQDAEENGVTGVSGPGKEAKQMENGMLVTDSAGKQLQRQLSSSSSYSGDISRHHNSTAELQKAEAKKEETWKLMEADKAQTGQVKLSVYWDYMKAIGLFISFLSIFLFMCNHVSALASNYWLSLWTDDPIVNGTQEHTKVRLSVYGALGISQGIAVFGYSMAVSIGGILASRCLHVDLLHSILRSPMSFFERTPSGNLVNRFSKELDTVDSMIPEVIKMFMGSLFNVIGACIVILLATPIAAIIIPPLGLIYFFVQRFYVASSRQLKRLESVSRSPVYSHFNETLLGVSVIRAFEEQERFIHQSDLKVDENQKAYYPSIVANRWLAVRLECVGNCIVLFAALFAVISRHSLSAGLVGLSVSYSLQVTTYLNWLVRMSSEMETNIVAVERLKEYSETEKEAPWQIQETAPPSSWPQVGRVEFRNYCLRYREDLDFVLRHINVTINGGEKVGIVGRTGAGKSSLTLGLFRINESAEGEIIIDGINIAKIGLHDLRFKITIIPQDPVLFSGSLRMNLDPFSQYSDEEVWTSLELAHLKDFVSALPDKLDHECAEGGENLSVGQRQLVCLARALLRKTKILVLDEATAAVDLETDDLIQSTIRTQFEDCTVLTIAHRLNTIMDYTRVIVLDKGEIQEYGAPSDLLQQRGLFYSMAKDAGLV

COc1cc2c(cc1OC)CN(CCc1ccc(NC(=O)c3cccc4c(=O)c5cccc(OC)c5[nH]c34)cc1)CC2 [GF120918]
sensitization to mitoxantrone ([1]; GF120918 at 1 μM, S1-M1-80 cells expressing MXR): 1850 fold | IC50 ([1]; Homo sapiens, S1-M1-80, read-out: IC50 for GF120918 alone, S1-M1-80 cells): 2500 nM | sensitization to topotecan ([1]; S1-M1-80 cells): 23 fold | concentration at which an effect on rhodamine efflux was observed [2]: 1 µM | effect on rhodamine efflux [3]: No effect | reversal of MRP-mediated calcein efflux [4]: only slight reversal | block of calcein AM efflux ([5]; Pgp-expressing S1-B1-20 cells): able to block efflux | type of inhibition of Pgp ([5]; calcein-AM efflux): non-competitive inhibitor | effect on mitoxantrone fluorescence ([6]; 0.4 μM GF120918): less marked | mitoxantrone level (accumulation, nuclear staining) ([6]; 10 μM and 50 μM GF120918 (data not shown)): full reversal had been achieved | concentration for full reversal of the rhodamine accumulation defect ([6]; S1-M1-80 cells): 10 µM | concentration at which the rhodamine 123 accumulation defect was reversed ([6]; S1-M1-80 cells (data not shown)): 2 µM | rhodamine 123 accumulation ([7]; 0.4 μM GF120918): enhanced | mitoxantrone fluorescence ([7]; 0.4 μM GF120918 during mitoxantrone incubation (data not shown)): level comparable to that of the parental line | concentrations inhibiting Pgp-mediated efflux [8]: nanomolar concentrations
